From patent US9255295B2, “Method for evaluating the sensitizing potential of a test compound” (IMMUNOSEARCH, priority 2010, dated 2016)
Where two headings read alike, the source gives them in different places.

Test system: ARE gene family (AKR1B10, AKR1C1, AKR1C2, CYP1B1, FTH1P, FTL, G6PD, GCLM, NQO2, SLC7A11, TXNRD1, UGT1A1, UGT1A9, YWHAZ, CD36, CYP1A1, GCLC, HMOX1, NQO1, PSME2 …)
Details: for AHR expression / AKR1B10 expression / AKR1C1 expression / AKR1C2 expression / CYP1A1 expression / CYP1B1 expression / FTH1P expression / FTL expression / GCLC expression / GCLM expression / HMOX1 expression / NQO1 expression / NQO2 expression / SLC7A11 expression / TXNRD1 expression / UGT1A1 expression / UGT1A9 expression: compared to the control

CC=Cc1ccc(O)c(OC)c1 [Isoeugenol]
AHR NUMBER OF GENES grade (0.1%): 0 (if this expression is lower, the grade is 0) | AKR1B10 NUMBER OF GENES grade (0.1%): 0 (if this expression is lower, the grade is 0) | AKR1C1 NUMBER OF GENES grade (0.1%): 0 (if this expression is lower, the grade is 0) | AKR1C2 NUMBER OF GENES grade (0.1%): 0 (if this expression is lower, the grade is 0) | ARE >1.3 (number of genes) (0.1%): 2 | CD36 expression compared to control (0.1%): 0.9 | CD36 grade (NUMBER OF GENES) (0.1%): 0 (if this expression is lower, the grade is 0) | CYP1A1 NUMBER OF GENES grade (0.1%): 1 (If the expression is greater than 1.3 compared to the control, a grade of 11s given) | CYP1B1 NUMBER OF GENES grade (0.1%): 1 (If the expression is greater than 1.3 compared to the control, a grade of 11s given) | FTH1P NUMBER OF GENES grade (0.1%): 0 (if this expression is lower, the grade is 0) | FTL NUMBER OF GENES grade (0.1%): 0 (if this expression is lower, the grade is 0) | GCLC NUMBER OF GENES grade (0.1%): 0 (if this expression is lower, the grade is 0) | GCLM NUMBER OF GENES grade (0.1%): 0 (if this expression is lower, the grade is 0) | HMOX1 NUMBER OF GENES grade (0.1%): 0 (if this expression is lower, the grade is 0) | NQO1 NUMBER OF GENES grade (0.1%): 0 (if this expression is lower, the grade is 0) | NQO2 NUMBER OF GENES grade (0.1%): 0 (if this expression is lower, the grade is 0) | S100A8 expression compared to control (0.1%): 1.1 | S100A8 grade (NUMBER OF GENES) (0.1%): 0 (if this expression is lower, the grade is 0) | SLC7A11 NUMBER OF GENES grade (0.1%): 0 (if this expression is lower, the grade is 0) | TOTAL ARE (number of genes) (0.1%): 2 | TXNRD1 NUMBER OF GENES grade (0.1%): 0 (if this expression is lower, the grade is 0) | UGT1A1 NUMBER OF GENES grade (0.1%): 0 (if this expression is lower, the grade is 0) | UGT1A9 NUMBER OF GENES grade (0.1%): 0 (if this expression is lower, the grade is 0) | AHR expression (0.1%): 0.7 | AKR1B10 expression (0.1%): 0.9 | AKR1C1 expression (0.1%): 1.1 | AKR1C2 expression (0.1%): 1.0 | CYP1A1 expression (0.1%): 11.9 | CYP1B1 expression (0.1%): 12.2 | FTH1P expression (0.1%): 0.8 | FTL expression (0.1%): 1.0 | GCLC expression (0.1%): 0.8 | GCLM expression (0.1%): 1.1 | HMOX1 expression (0.1%): 0.9 | NQO1 expression (0.1%): 1.1 | NQO2 expression (0.1%): 1.0 | SLC7A11 expression (0.1%): 1.1 | TXNRD1 expression (0.1%): 1.1 | UGT1A1 expression (0.1%): 1.0 | UGT1A9 expression (0.1%): 0.8 | AHR NUMBER OF GENES grade (1%): 0 (if this expression is lower, the grade is 0) | AKR1B10 NUMBER OF GENES grade (1%): 0 (if this expression is lower, the grade is 0) | AKR1C1 NUMBER OF GENES grade (1%): 0 (if this expression is lower, the grade is 0) | AKR1C2 NUMBER OF GENES grade (1%): 0 (if this expression is lower, the grade is 0) | ARE >1.3 (number of genes) (1%): 3 | CD36 expression compared to control (1%): 1.3 | CD36 grade (NUMBER OF GENES) (1%): 1 (If the expression is greater than 1.3 compared to the control, a grade of 11s given) | CYP1A1 NUMBER OF GENES grade (1%): 1 (If the expression is greater than 1.3 compared to the control, a grade of 11s given) | CYP1B1 NUMBER OF GENES grade (1%): 1 (If the expression is greater than 1.3 compared to the control, a grade of 11s given) | FTH1P NUMBER OF GENES grade (1%): 0 (if this expression is lower, the grade is 0) | FTL NUMBER OF GENES grade (1%): 0 (if this expression is lower, the grade is 0) | GCLC NUMBER OF GENES grade (1%): 0 (if this expression is lower, the grade is 0) | GCLM NUMBER OF GENES grade (1%): 0 (if this expression is lower, the grade is 0) | HMOX1 NUMBER OF GENES grade (1%): 0 (if this expression is lower, the grade is 0) | NQO1 NUMBER OF GENES grade (1%): 0 (if this expression is lower, the grade is 0) | NQO2 NUMBER OF GENES grade (1%): 0 (if this expression is lower, the grade is 0) | S100A8 expression compared to control (1%): 1.0 | S100A8 grade (NUMBER OF GENES) (1%): 0 (if this expression is lower, the grade is 0) | SLC7A11 NUMBER OF GENES grade (1%): 0 (if this expression is lower, the grade is 0) | TOTAL ARE (number of genes) (1%): 3 | TXNRD1 NUMBER OF GENES grade (1%): 1 (If the expression is greater than 1.3 compared to the control, a grade of 11s given) | UGT1A1 NUMBER OF GENES grade (1%): 0 (if this expression is lower, the grade is 0) | UGT1A9 NUMBER OF GENES grade (1%): 0 (if this expression is lower, the grade is 0) | AHR expression (1%): 0.9 | AKR1B10 expression (1%): 0.7 | AKR1C1 expression (1%): 1.2 | AKR1C2 expression (1%): 0.9 | CYP1A1 expression (1%): 219.2 | CYP1B1 expression (1%): 25.3 | FTH1P expression (1%): 0.9 | FTL expression (1%): 1.0 | GCLC expression (1%): 0.9 | GCLM expression (1%): 1.2 | HMOX1 expression (1%): 1.2 | NQO1 expression (1%): 1.0 | NQO2 expression (1%): 1.0 | SLC7A11 expression (1%): 1.1 | TXNRD1 expression (1%): 1.3 | UGT1A1 expression (1%): 1.1 | UGT1A9 expression (1%): 1.0 | AHR NUMBER OF GENES grade (10%): 0 (if this expression is lower, the grade is 0) | AKR1B10 NUMBER OF GENES grade (10%): 0 (if this expression is lower, the grade is 0)
